Data published in PMC7732128, “Regulation of gene transcription by thyroid hormone receptor β agonists in clinical development for the treatment of non-alcoholic steatohepatitis (NASH)” (PLoS ONE, 2020).
Entries after “also recorded” stand apart in the source; their conditions may differ. Read-outs that look alike come from different tables or passages of the source.

Columns and labels:
HFD fed rats = experiment: High-fat diet fed rat study: serum and hepatic lipid levels; assay type: in vivo
Experimental: Animals were purchased from Vital River Laboratory Animal Technology Co. Ltd. and experiments were conducted at Covance Pharmaceutical R&D (Shanghai) Co., Ltd. (China). Animals were group-housed in polycarbonate cages with corncob bedding under controlled temperature (21–25°C), humidity (40–70%), and a 12-hr light/dark cycle. All procedures performed were in compliance with local animal welfare legislation, Covance global policies and procedures, and the Guide for the Care and Use of Laboratory Animals.
(§1) Eighty-four male Sprague Dawley rats, approximately 8 to 11 weeks of age, were fed with either a normal diet, ND (D12450K: 10 kcal% fat, no sucrose), or high-fat diet, HFD (D12109C: 40 kcal% fat, 1.25 gm% cholesterol, 0.5 gm% sodium cholate, 12.5 gm% sucrose). After 12 days of diet consumption, baseline serum total cholesterol and low-density lipoprotein cholesterol (LDL-C) levels were measured with the cobas 6000 c501 Chemistry Analyzer (Roche) to confirm hypercholesterolemia in the HFD fed rats. Animals were then randomized into treatment groups.
(§2) Twenty-four hrs after dosing, animals were euthanized by CO2 inhalation and serum and plasma were collected along with liver tissue. Serum total cholesterol and LDL-C levels were determined as described above. […] Caudate lobes of the liver were used for analysis of hepatic total cholesterol (Abcam, ab65390) and triglyceride levels (Abcam, ab65336) via enzyme-linked immunosorbent assay. Right lateral lobes were stored in RNAlater (Invitrogen, AM7020) at -70°C until homogenization with the Scientz-48 TissueLyser LT for downstream gene expression analysis. RNA extraction was performed at WuXi AppTec (Hong Kong) Limited (China) with the RNeasy Mini Kit (Qiagen, 74106) and RNA concentration and quality was determined using the Nanodrop 2000 (Thermo Scientific); additional quality control was assessed with agarose gel electrophoresis. One μg total RNA from each sample was then reverse-transcribed using the High Capacity cDNA Reverse Transcription kit (Applied Biosystems, 4368814) and the resulting cDNA was diluted 1:5 with nuclease-free, distilled water. Gene expression was measured using TaqMan Fast Advanced Master Mix and the following TaqMan Gene Expression assays: Actb (Rn00667869_m1), Cpt1a (Rn00580702_m1), Dio1 (Rn00572183_m1), Me1 (Rn00561502_m1), Rplp1 (Rn03467157_gH), and Thrsp (Rn01511034_m1). Actb and Rplp1 served as control housekeeping genes. Ten μL reactions were run on the qTOWER³ 84. Relative quantification (RQ) of gene expression was calculated via the 2^−ΔΔCt method and statistical analysis was performed in GraphPad Prism 8.0 and Microsoft Excel.

[1] = High-fat diet fed rat study: plasma compound concentration (LC-MS/MS); assay type: in vivo; conditions: male, Sprague Dawley, po, HFD rats, read-out: Plasma AUC0-24hrs
Experimental: as §1
as §2, with “Ten μL reactions were run on the qTOWER³ 84.” left out

healthy volunteers = conditions: two weeks, ≥ 80 mg; cited from earlier work
[2] = system: hepatic OATP1B1/B3 transporters; parameters: method as in PMID 19785645; conditions: cited from earlier work
THRβ (α:β) = system: THRβ (α:β); parameters: method as in PMID 32768645; conditions: coactivator recruitment assay; cited from earlier work
[3] = 0.5 mg/kg P.O. single dose, 24 hrs
[4] = 5.0 and 1.5 mg/kg P.O. single dose, 24 hrs post-dose

Row | Structure (SMILES) | effect on serum LDL-C (HFD fed rats; [3]) | effect on serum total cholesterol (HFD fed rats; [3]) | effect on serum triglyceride levels (HFD fed rats; [3]) | decrease in serum triglyceride levels (pre-dose vs 24 hrs post-dose) (HFD fed rats; 1.5 mg/kg P.O. single dose) [%] | decrease in serum total cholesterol (pre-dose vs 24 hrs post-dose) (HFD fed rats; 5 mg/kg P.O. single dose) [%] | decrease in serum triglyceride levels (pre-dose vs 24 hrs post-dose) (HFD fed rats; 5.0 mg/kg P.O. single dose) [%] | effect on hepatic cholesterol levels (HFD fed rats; [4]) | effect on hepatic triglyceride levels (HFD fed rats; [4]) | AUC(0-t) ([1]; 0.5 mg/kg P.O. single dose) [ng·h/mL] | AUC(0-t) ([1]; 1.5 mg/kg P.O. single dose) [ng·h/mL] | AUC(0-t) ([1]; 5.0 mg/kg P.O. single dose) [ng·h/mL] | reduction in LDL-C (healthy volunteers) | reduction in total cholesterol (healthy volunteers) | transporter substrate [2] | selectivity for THRβ (α:β) (THRβ (α:β))
1 | CC(C)c1cc(Oc2c(Cl)cc(-n3nc(C#N)c(=O)[nH]c3=O)cc2Cl)n[nH]c1=O [MGL-3196, 2-[3,5-dichloro-4-(5-isopropyl-6-oxo-1,6-dihydropyridazin-3-yloxy)phenyl]-3,5-dioxo-2,3,4,5-tetrahydro[1,2,4]triazine-6-carbonitrile] | did not significantly lower | no significant effect; also recorded: did not significantly lower | did not have a significant effect; also recorded: did not significantly lower | 37.5 | 33.6 | 32.1 | did not significantly affect | did not significantly affect | 2600 | 8200 | 21700 | 21.8–30.3% | 16.0–22.8% | substrate | 
2 | Cc1cc(OCP(=O)(O)O)cc(C)c1Cc1ccc(O)c(C(C)C)c1 [VK2809A] |  |  |  |  |  |  |  |  |  |  |  |  |  |  | 2.1
